Reference: PubChem BioAssay AID248 (DTP/NCI, 2004)
Values joined by “and” are separate entries in the source; they are usually repeats but may differ in a detail not shown here. Equal values may be shown once. Toxic doses and inconclusive results are not listed. Cut-off read from the data, not from the text of the source: active = T/C of 150% or more; inactive = T/C below 125%.

Test system: L1210 leukemia ip in BDF1 mice, survival T/C
Experiment: NCI In Vivo Anticancer Drug Screen. Data for tumor model L1210 Leukemia (intraperitoneal) in B6D2F1 (BDF1) mice
Settings: endpoint: mean survival time, higher = longer survival
How it was run: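 Read-out is survival time, reported as the treated-group measurement over the vehicle-control measurement.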

[1] = dose: 100.0 mg/kg/injection, schedule: Q01DX001 (ip), vehicle: saline
[2] = dose: 200.0 mg/kg/injection, schedule: Q01DX001 (ip), vehicle: saline
[3] = dose: 100.0 mg/kg/injection, schedule: Q01DX009 (ip), vehicle: saline with Tween-80
[4] = dose: 100.0 mg/kg/injection, schedule: Q04DX002 (ip), vehicle: Klucel (hydroxypropylcellulose) (HPC)
[5] = dose: 200.0 mg/kg/injection, schedule: Q04DX002 (ip), vehicle: Klucel (hydroxypropylcellulose) (HPC)
[6] = dose: 400.0 mg/kg/injection, schedule: Q04DX002 (ip), vehicle: Klucel (hydroxypropylcellulose) (HPC)
[7] = dose: 200.0 mg/kg/injection, schedule: Q01DX009 (ip), vehicle: saline with Tween-80

Measured: T/C

COc1ccc2nc(N=Nc3c(N)nc(N)nc3N)sc2c1
inactive: [1] 96 % of control | [2] 105 % of control

CCCCCCCC[n+]1ccc(C#N)cc1
inactive: dose: 18.8 mg/kg/injection, schedule: Q04DX003 (ip), vehicle: saline 97 % of control | dose: 37.5 mg/kg/injection, schedule: Q04DX003 (ip), vehicle: saline 100 % of control | dose: 75.0 mg/kg/injection, schedule: Q01DX001 (ip), vehicle: saline 96 % of control | dose: 75.0 mg/kg/injection, schedule: Q04DX003 (ip), vehicle: saline 100 % of control

CCC(C)C(C#N)(CCN1CCCCC1)Cc1cccc2ccccc12 (stereo not drawn)
inactive: dose: 25.0 mg/kg/injection, schedule: Q04DX003 (ip), vehicle: Klucel (hydroxypropylcellulose) (HPC) 109 % of control | dose: 50.0 mg/kg/injection, schedule: Q04DX003 (ip), vehicle: Klucel (hydroxypropylcellulose) (HPC) 98 % of control | [3] 96 % of control | dose: 100.0 mg/kg/injection, schedule: Q04DX003 (ip), vehicle: Klucel (hydroxypropylcellulose) (HPC) 95 % of control

NCCN(CCN)CCN
inactive: dose: 50.0 mg/kg/injection, schedule: Q01DX001 (ip), vehicle: saline 108 % of control | [1] 96 % of control | [2] 96 % of control | dose: 400.0 mg/kg/injection, schedule: Q01DX001 (ip), vehicle: saline 124 % of control

CCOC(=O)/C(C#N)=C/c1cccn1Cc1cc(OC)c(OC)cc1[N+](=O)[O-]
inactive: dose: 25.0 mg/kg/injection, schedule: Q04DX002 (ip), vehicle: Klucel (hydroxypropylcellulose) (HPC) 110 % of control | dose: 50.0 mg/kg/injection, schedule: Q04DX002 (ip), vehicle: Klucel (hydroxypropylcellulose) (HPC) 89 % of control | [4] 96 % of control

CC(C)(C)C(=O)CC(=O)C(C)(C)C.CC(C)(C)C(=O)CC(=O)C(C)(C)C.CC(C)(C)C(=O)CC(=O)C(C)(C)C.[Eu]
inactive: [4] 97 % of control | [5] 106 % of control | [6] 87 % of control

COC(=O)C1CCC(NC(=O)NCCCl)CC1 (stereo not drawn)
inactive: dose: 100.0 mg/kg/injection, schedule: Q01DX001 (ip), vehicle: Klucel (hydroxypropylcellulose) (HPC) 95 % of control and 103 % of control | dose: 200.0 mg/kg/injection, schedule: Q01DX001 (ip), vehicle: Klucel (hydroxypropylcellulose) (HPC) 93 % of control and 97 % of control | dose: 400.0 mg/kg/injection, schedule: Q01DX001 (ip), vehicle: Klucel (hydroxypropylcellulose) (HPC) 95 % of control

CP1CCC(O)(c2ccccc2)CC1 (stereo not drawn)
inactive: [4] 88 % of control | [5] 103 % of control | [6] 95 % of control

CC(C)c1ccc(/C=C\C(=O)c2ccc(-c3ccccc3)cc2)cc1
inactive: [3] 103 % of control | dose: 100.0 mg/kg/injection, schedule: Q04DX002 (ip), vehicle: saline with Tween-80 86 % of control | [7] 106 % of control | dose: 200.0 mg/kg/injection, schedule: Q04DX002 (ip), vehicle: saline with Tween-80 101 % of control | dose: 400.0 mg/kg/injection, schedule: Q04DX002 (ip), vehicle: saline with Tween-80 101 % of control

Brc1cscc1Cc1ccccc1
inactive: dose: 50.0 mg/kg/injection, schedule: Q01DX009 (ip), vehicle: saline with Tween-80 95 % of control | [3] 95 % of control | [7] 95 % of control

O=C(Nc1ccccc1)c1nccc2ccccc12
inactive: dose: 100.0 mg/kg/injection, schedule: Q01DX001 (ip), vehicle: steriod suspending solution 117 % of control | dose: 200.0 mg/kg/injection, schedule: Q01DX001 (ip), vehicle: steriod suspending solution 109 % of control | dose: 400.0 mg/kg/injection, schedule: Q01DX001 (ip), vehicle: steriod suspending solution 108 % of control

Cc1onc(-c2ccccc2Cl)c1C(=O)NC(N)=S
inactive: dose: 100.0 mg/kg/injection, schedule: Q01DX009 (ip), vehicle: saline 103 % of control | dose: 200.0 mg/kg/injection, schedule: Q01DX009 (ip), vehicle: saline 101 % of control | dose: 400.0 mg/kg/injection, schedule: Q01DX009 (ip), vehicle: saline 104 % of control

Cc1ccc(NC(=O)/C=C/C(=O)Nc2ccc(C)cc2)cc1
inactive: dose: 100.0 mg/kg/injection, schedule: Q04DX003 (ip), vehicle: saline 103 % of control | dose: 200.0 mg/kg/injection, schedule: Q04DX003 (ip), vehicle: saline 100 % of control | dose: 400.0 mg/kg/injection, schedule: Q04DX003 (ip), vehicle: saline 103 % of control
